In PMC11111408, “Concurrent inhibition of oncogenic and wild-type RAS-GTP for cancer therapy” (Nature, 2024):
Where “and” joins values, the source holds several entries; their conditions need not be identical. Identical values can stand only once.

Experiments:
CYPA = target: T1, CYPA (Homo sapiens, UniProt P62937); experiment: CYPA binding affinity (Kd1), SPR; details: steady state, (95% CI)
T1 construct: His6-TEV-AviTag-CYPA (full-length); His6-TEV (N); made in house; host or cells: BL21(DE3) Escherichia coli
Method: The binding affinity of compounds for CYPA (Kd1) was assessed by SPR on a Biacore 8K instrument as previously described.

KRAS^G12D = KRAS^G12D (Homo sapiens, UniProt P01116+P62937, G12D); experiment: Biochemical RAS–RAF (BRAF RBD) disruption, TR-FRET; design: made in house; host or cells: BL21(DE3) Escherichia coli; details: (95% CI)
Source text: (§1) Time-resolved fluorescence resonance energy transfer (TR-FRET) was used as previously described to assess disruption of the interactions between wild-type RAS or the mutant oncogenic RAS proteins and the RAS-binding domain of BRAF, and to assess the induction of interactions between the RAS proteins and CYPA[12].

KRAS WT = KRAS WT (Homo sapiens, UniProt P01116+P62937); experiment: Biochemical RAS–RAF (BRAF RBD) disruption, TR-FRET; design: made in house; host or cells: BL21(DE3) Escherichia coli
Source text: as §1

KRAS^G12R = KRAS^G12R (Homo sapiens, UniProt P01116+P62937, G12R); experiment: Biochemical RAS–RAF (BRAF RBD) disruption, TR-FRET; design: made in house; host or cells: BL21(DE3) Escherichia coli; details: (95% CI)
Source text: as §1

[1] = test system: CT26 syngeneic tumours engineered to express KRAS^G12C; experiment: Immune cell response in eCT26 KRAS^G12C syngeneic tumours; format: in vivo, mouse; details: 24 hours post 4 days of treatment, 25 mg/kg PO QD, individual mice
Method: Tumor tissue was minced, processed with the Dri Tumor & Tissue Dissociation Reagent from BD Biosciences and homogenized with the gentleMACS™ Dissociator. Tumor cell suspensions were incubated at 4°C for 30 minutes with Mouse BD Fc Block (Clone 2.4G2 from BD Pharmingen), 10 minutes with Blue Dead Cell Stain Kit (Invitrogen) and 30 min in cell staining buffer. […] Cells were analyzed on a 4-laser Cytek Aurora (Cytek Biosciences), and data analysis was done using SpectroFlo (Cytek Biosciences) and FlowJo (FlowJo LLC.).

RAS = experiment: Binding of the CYPA–RMC-7977 binary complex to RAS (Kd2), SPR; design: species or system human; details: all three wild-type RAS proteins
Source text: The basic nitrogen of the piperazine forms a cation–π interaction with W121. e, Oriented by the hydrogen bond to CYPA W121, RAS Y64 forms π-stacking interactions with the pyridine and indole groups. […] Data are mean ± s.d. of independent experiments (KRAS variants (green): wild-type (WT) KRAS, n = 4; KRAS(G12C), KRAS(G12D), KRAS(G12R), KRAS(G12V), KRAS(G13D), n = 6; NRAS variants (blue): NRAS(WT), NRAS(Q61L), n = 4; NRAS(Q61K), NRAS(Q61R), n = 6; HRAS variants (purple): HRAS(WT), n = 5; HRAS(G13R), n = 6; slope = 0.99, 95% confidence interval: 0.8–1.2, R^2 = 0.99; values also shown in Extended Data Tables 1–3).
The binding affinity of compound-bound CYPA for the mutant oncogenic RAS proteins (Kd2) mentioned was assessed by SPR on a Biacore 8 K instrument. […] The SPR sensorgrams were fit using either a steady state affinity model or a 1:1 binding (kinetic) model to assess the dissociation constant (Kd) for RAS binding.

[2] = target: T2, MRAS and other RAS family small GTPase proteins (Homo sapiens, UniProt P62070, G23V); experiment: Cellular BRET between CYPA and small GTPases (RIT1, MRAS, RRAS, RRAS2, Rheb); format: cell-based; details: RRAS2 G23V, single replicates
T2 construct: expressed in transfected cells; host or cells: U2OS PPIA-KO
T2 sequence (P62070 1-204 G23V): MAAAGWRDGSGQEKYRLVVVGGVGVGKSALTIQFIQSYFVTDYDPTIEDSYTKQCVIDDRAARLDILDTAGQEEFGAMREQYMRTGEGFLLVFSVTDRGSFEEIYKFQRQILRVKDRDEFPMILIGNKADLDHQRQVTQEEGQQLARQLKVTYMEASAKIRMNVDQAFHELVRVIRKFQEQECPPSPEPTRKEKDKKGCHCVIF

[3] = target: T3, MRAS and other RAS family small GTPase proteins (Homo sapiens, UniProt P10301, G38V); experiment: as above; format: cell-based; details: RRAS G38V, single replicates
T3 construct: expressed in transfected cells; host or cells: U2OS PPIA-KO
T3 sequence (P10301 1-218 G38V): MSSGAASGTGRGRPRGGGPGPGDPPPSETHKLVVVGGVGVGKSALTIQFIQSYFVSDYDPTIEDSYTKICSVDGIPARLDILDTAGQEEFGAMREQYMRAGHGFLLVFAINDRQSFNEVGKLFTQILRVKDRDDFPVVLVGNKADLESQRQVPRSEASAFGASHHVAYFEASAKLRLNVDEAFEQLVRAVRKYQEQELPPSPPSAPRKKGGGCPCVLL

[4] = target: T4, MRAS and other RAS family small GTPase proteins (Homo sapiens, UniProt Q15382); experiment: as above; format: cell-based; details: RHEB, single replicates
T4 construct: expressed in transfected cells; host or cells: U2OS PPIA-KO

[5] = target: T5, MRAS and other RAS family small GTPase proteins (Homo sapiens, UniProt Q92963); experiment: as above; format: cell-based; details: RIT1, single replicates
T5 construct: expressed in transfected cells; host or cells: U2OS PPIA-KO

Capan-1 cells = experiment: Cellular ERK phosphorylation (pERK); format: cell-based; details: Homo sapiens; Capan-1 (KRAS^G12V PDAC); (95% CI)

SMILES: CCn1c(-c2cc(N3CCN(C4CC4)CC3)cnc2[C@H](C)OC)c2c3cc(ccc31)-c1csc(n1)C[C@H](NC(=O)[C@H]1[C@@H]3COC[C@@H]31)C(=O)N1CCC[C@H](N1)C(=O)OCC(C)(C)C2 [RMC-7977]
- Kd (CYPA): 0.195 µM
- EC50 (KRAS^G12D): 0.176 µM
- EC50 (KRAS WT): 0.077 µM
- EC50 (KRAS^G12R): 0.123 µM
- AH1 specific % of CD8+ cells [1]: 37.8% and 45.2% and 69.2% and 39.2%
- CD8+ % of CD45+ cells [1]: 36.2% and 31.8% and 38.7% and 46.1%
- CD45+ % of live cells [1]: 77.4% and 74.9% and 84.2% and 83.5%
- Kd (RAS): ~0.1 µM
- Cellular milliBRET signal between CYPA and small GTPase protein ([2]; RMC-7977 1.524 nM): -0.2719 milliBRET and -0.4231 milliBRET and 0.2605 milliBRET and -0.1984 milliBRET and 0.524 milliBRET and 0.04711 milliBRET
- Cellular milliBRET signal between CYPA and small GTPase protein ([2]; RMC-7977 4.572 nM): -0.5269 milliBRET and -0.1093 milliBRET and -0.06611 milliBRET and -0.1023 milliBRET and 0.1899 milliBRET and 0.4007 milliBRET
- Cellular milliBRET signal between CYPA and small GTPase protein ([2]; RMC-7977 13.717 nM): 0.6404 milliBRET and 0.07312 milliBRET and 0.4941 milliBRET and 0.7558 milliBRET and 0.6549 milliBRET and 1.032 milliBRET
- Cellular milliBRET signal between CYPA and small GTPase protein ([2]; RMC-7977 41.152 nM): 0.4251 milliBRET and 1.3441 milliBRET and 1.494 milliBRET and 1.804 milliBRET and 1.776 milliBRET and 2.155 milliBRET
- Cellular milliBRET signal between CYPA and small GTPase protein ([2]; RMC-7977 123.457 nM): 1.79 milliBRET and 2.3918 milliBRET and 3.205 milliBRET and 3.2803 milliBRET and 3.617 milliBRET and 3.886 milliBRET
- Cellular milliBRET signal between CYPA and small GTPase protein ([2]; RMC-7977 370.370 nM): 4.62 milliBRET and 5.516 milliBRET and 5.967 milliBRET and 6.807 milliBRET and 6.877 milliBRET and 7.887 milliBRET
- Cellular milliBRET signal between CYPA and small GTPase protein ([2]; RMC-7977 1111.111 nM): 5.956 milliBRET and 7.6238 milliBRET and 6.926 milliBRET and 8.351 milliBRET and 7.549 milliBRET and 9.519 milliBRET
- Cellular milliBRET signal between CYPA and small GTPase protein ([3]; RMC-7977 1.524 nM): 0.03915 milliBRET and 0.5182 milliBRET and 0.5529 milliBRET and 0.4086 milliBRET and -0.3288 milliBRET and -0.1046 milliBRET
- Cellular milliBRET signal between CYPA and small GTPase protein ([3]; RMC-7977 4.572 nM): 0.5753 milliBRET and 0.4746 milliBRET and 0.4726 milliBRET and 0.8392 milliBRET and 0.3184 milliBRET and -0.4343 milliBRET
- Cellular milliBRET signal between CYPA and small GTPase protein ([3]; RMC-7977 13.717 nM): 1.433 milliBRET and 1.375 milliBRET and 1.967 milliBRET and 1.168 milliBRET and -0.05818 milliBRET and -0.1444 milliBRET
- Cellular milliBRET signal between CYPA and small GTPase protein ([3]; RMC-7977 41.152 nM): 2.179 milliBRET and 2.7799 milliBRET and 3.446 milliBRET and 3.438 milliBRET and 1.092 milliBRET and 1.757 milliBRET
- Cellular milliBRET signal between CYPA and small GTPase protein ([3]; RMC-7977 123.457 nM): 6.2456 milliBRET and 5.867 milliBRET and 7.851 milliBRET and 6.806 milliBRET and 4.695 milliBRET and 3.825 milliBRET
- Cellular milliBRET signal between CYPA and small GTPase protein ([3]; RMC-7977 370.370 nM): 10.4854 milliBRET and 10.0017 milliBRET and 10.9416 milliBRET and 10.5658 milliBRET and 8.5015 milliBRET and 8.57 milliBRET
- Cellular milliBRET signal between CYPA and small GTPase protein ([3]; RMC-7977 1111.111 nM): 11.032 milliBRET and 12.1599 milliBRET and 11.6879 milliBRET and 11.9893 milliBRET and 10.1243 milliBRET and 10.2861 milliBRET
- Cellular milliBRET signal between CYPA and small GTPase protein ([4]; RMC-7977 1.524 nM): -0.45 milliBRET and -0.2239 milliBRET and 0.1289 milliBRET and 0.6887 milliBRET and -0.5364 milliBRET and -0.5485 milliBRET
- Cellular milliBRET signal between CYPA and small GTPase protein ([4]; RMC-7977 4.572 nM): 0.6966 milliBRET and 0.368 milliBRET and 0.4716 milliBRET and -0.2095 milliBRET and 0.8367 milliBRET and -0.3539 milliBRET
- Cellular milliBRET signal between CYPA and small GTPase protein ([4]; RMC-7977 13.717 nM): 1.377 milliBRET and 0.5452 milliBRET and 0.5599 milliBRET and 0.1038 milliBRET and 0.7915 milliBRET and 0.2385 milliBRET
- Cellular milliBRET signal between CYPA and small GTPase protein ([4]; RMC-7977 41.152 nM): 0.3762 milliBRET and 0.1445 milliBRET and -0.08351 milliBRET and -0.3538 milliBRET and 0.07098 milliBRET and 0.09785 milliBRET
- Cellular milliBRET signal between CYPA and small GTPase protein ([4]; RMC-7977 123.457 nM): 1.173 milliBRET and 0.0474 milliBRET and 0.6247 milliBRET and 0.06196 milliBRET and -0.03233 milliBRET and -0.4308 milliBRET
- Cellular milliBRET signal between CYPA and small GTPase protein ([4]; RMC-7977 370.370 nM): 0.02833 milliBRET and 1.208 milliBRET and -0.3412 milliBRET and 1.195 milliBRET and -0.2334 milliBRET and 1.355 milliBRET
- Cellular milliBRET signal between CYPA and small GTPase protein ([4]; RMC-7977 1111.111 nM): 0.8505 milliBRET and -0.1562 milliBRET and 0.9686 milliBRET and -0.197 milliBRET and 0.47 milliBRET and 0.6063 milliBRET
- Cellular milliBRET signal between CYPA and small GTPase protein ([5]; RMC-7977 1.524 nM): -0.09879 milliBRET and 0.3095 milliBRET and 0.2348 milliBRET and 0.5374 milliBRET and 0.06248 milliBRET and 1.089 milliBRET
- Cellular milliBRET signal between CYPA and small GTPase protein ([5]; RMC-7977 4.572 nM): 1.317 milliBRET and 0.9916 milliBRET and 1.087 milliBRET and 0.9533 milliBRET and 1.62 milliBRET and 0.6301 milliBRET
- Cellular milliBRET signal between CYPA and small GTPase protein ([5]; RMC-7977 13.717 nM): 2.2977 milliBRET and 1.206 milliBRET and 2.0899 milliBRET and 1.6222 milliBRET and 2.532 milliBRET and 1.262 milliBRET
- Cellular milliBRET signal between CYPA and small GTPase protein ([5]; RMC-7977 41.152 nM): 3.198 milliBRET and 4.946 milliBRET and 3.114 milliBRET and 5.017 milliBRET and 3.557 milliBRET and 4.376 milliBRET
- Cellular milliBRET signal between CYPA and small GTPase protein ([5]; RMC-7977 123.457 nM): 3.95 milliBRET and 6.444 milliBRET and 3.939 milliBRET and 6.521 milliBRET and 4.166 milliBRET and 6.383 milliBRET
- Cellular milliBRET signal between CYPA and small GTPase protein ([5]; RMC-7977 370.370 nM): 5.287 milliBRET and 9.701 milliBRET and 5.757 milliBRET and 9.124 milliBRET and 5.435 milliBRET and 8.897 milliBRET
- Cellular milliBRET signal between CYPA and small GTPase protein ([5]; RMC-7977 1111.111 nM): 5.773 milliBRET and 8.825 milliBRET and 5.603 milliBRET and 8.649 milliBRET and 4.274 milliBRET and 8.593 milliBRET
- EC50 (Capan-1 cells): 0.000421 µM
